Among the data in PMC12051030, “Identification of inhibitors of the Salmonella FraB deglycase, a drug target” (FEBS Open Bio, 2025) are IC50 values, retold here.

The assay has as its target His6‐FraB (Salmonella FraB deglycase) (Salmonella enterica subsp. enterica serovar Typhimurium, UniProt Q8ZLD0). Briefly: FraB-G6PD coupled assay, IC50 determination. In kind it is biochemical. As to the method:
The substrate for FraB, 6‐P‐F‐Asp, was synthesized as previously described. FraB activity was monitored as described previously, with the following changes. The final reaction (30 μL) consisted of 25 mM HEPES pH 8 (at 20 °C), 5 mM MgCl2, 0.1 mM ethylene glycol tetraacetic acid (EGTA), 0.5 mM NAD^+, 1 mU G6PD from Leuconostoc mesenteroides (#LS003981; Worthington Biochemicals, Lakewood, NJ, USA), 100 nM His6‐FraB, and 0–3 mM 6‐P‐F‐Asp. The reaction mixture without substrate (29 μL) was added to one well of a 384‐well polystyrene white μClear® microplate (#781095; Greiner Bio‐One, Monroe, NC, USA) and incubated at 37 °C for 2 min, prior to the addition of 1 μL substrate to initiate the reaction. NADH generation was monitored using either absorbance (340 nm) or fluorescence (350 nm excitation, 450 nm emission) and with either an INFINITE M1000 PRO (Tecan, Mannedorf, Switzerland) or Synergy H1 (Biotek, Winooski, VT, USA) plate reader. Absorbance/fluorescence was plotted against time and slopes were obtained by linear regression analyses. These slopes were converted into initial velocities by dividing them by either the absorbance extinction coefficient (ε340 = 6,220 M ^−1·cm^−1) or the molar fluorescence determined based on standard curves obtained in different plate readers (23,646 RFUs·μM ^−1, Tecan; 285,108 RFUs·μM ^−1, Biotek; Fig. S2). These initial velocities (v o) in turn were plotted against [6‐P‐F‐Asp] to obtain Michaelis–Menten curves that were fit to the formula v o = (V max × [S])/(K m + [S]) by Kaleidagraph (Version 4.5.3; Synergy Software, Reading, PA, USA). The activity of recombinant FraB (Fig. S3) was similar to that as reported previously.
For determining the IC50 value of each compound, 26 μL of master mix was added to two rows (48 wells) of a 384‐well Greiner plate followed by 3 μL of inhibitor to four wells per concentration (12 concentrations total) using a single‐channel pipette. After mixing with a 12‐channel pipette, the plate was incubated at 20 °C for 20 min. To initiate the reaction, a 12‐channel pipette was used to add and mix 1 μL of 7.5 mM 6‐P‐F‐Asp to all 48 wells. The final reaction (30 μL) consisted of 25 mM HEPES pH 8.0 at 20 °C, 5 mM MgCl2, 0.1 mM EGTA, 0.5 mM NAD^+, 1 mU G6PD, 100 nM His6‐FraB, 0.25 mM 6‐P‐F‐Asp, and varying concentrations of inhibitor (10% v/v DMSO). NADH fluorescence was monitored every 10 s for 10 min total on a SPARK® multi‐mode multiplate reader (Tecan), as described above, and plotted against time. Slopes of the linear range of each curve were converted to initial velocities, as described above, that were then plotted against (inhibitor). Kaleidagraph was used to fit a sigmoidal curve to each plot using the following formula in order to determine the [IC50]: % inhibition = 100/1 + (IC50/[I]), where I is [inhibitor] [48].

The mark [1] stands for this setting: 0.25 mM 6‐P‐F‐Asp, mean and standard error from two measurements, read-out: IC50.
Setting [2] is: Trial 1, 0.25 mM 6-P-F-Asp, unit in Fig. S10, read-out: IC50 (curve fit of IC50 plots, Fig. S10).
Where [3] appears, read: Trial 2, 0.25 mM 6-P-F-Asp, unit in Fig. S10, read-out: IC50 (curve fit of IC50 plots, Fig. S10).

“And” between values parts separate entries of the source, which are not always exact repeats. Equal values may be shown once. Read-outs that look alike come from different tables or passages of the source.

Sequence of His6‐FraB (Salmonella FraB deglycase) (Q8ZLD0 entry or part of it): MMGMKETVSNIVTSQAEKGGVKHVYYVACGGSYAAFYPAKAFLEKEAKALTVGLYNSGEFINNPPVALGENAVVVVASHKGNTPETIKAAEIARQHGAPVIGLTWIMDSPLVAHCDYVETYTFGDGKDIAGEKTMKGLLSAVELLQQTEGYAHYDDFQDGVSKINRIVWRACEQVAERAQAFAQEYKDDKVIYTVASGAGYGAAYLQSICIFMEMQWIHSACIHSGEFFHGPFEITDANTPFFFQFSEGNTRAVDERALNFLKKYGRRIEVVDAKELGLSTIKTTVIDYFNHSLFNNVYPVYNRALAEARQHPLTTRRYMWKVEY

On to `Cc1cccc(Cl)c1-n1sc(=O)n(CC2CC2)c1=O` [1524:E12, 2‐(2‐chloro‐6‐methylphenyl)‐4‐(cyclopropylmethyl)‐1,2,4‐thiadiazolidine‐3,5‐dione], for which the IC50 is, setting by setting: under setting [1], 4.3 µM; under setting [2], 4.28 µM and 4.3 µM; under setting [3], 4.29 µM and 4.3 µM.

On to `O=c1sn(-c2ccccc2C(F)(F)F)c(=O)n1CC1CC1` [1524:G12, 4‐(cyclopropylmethyl)‐2‐[2‐(trifluoromethyl)phenyl]‐1,2,4‐thiadiazolidine‐3,5‐dione], for which the IC50 is 2.8 ± 0.4 µM under setting [1]; 3.24 µM and 3.2 µM under setting [2]; 2.39 µM and 2.4 µM under setting [3].

In the case of `O=c1[nH][nH]c(=S)n1Cc1ccccc1` [1533:K12, 4‐benzyl‐5‐sulfanylidene‐1,2,4‐triazolidin‐3‐one], the IC50 by setting is: under setting [1], 27.6 ± 3.9 µM; under setting [2], 31.5 µM; under setting [3], 23.7 µM.

On to `c1ccc(-c2nnc3sc(C4COc5ccccc5O4)nn23)nc1` (stereo not drawn) [3469:F02, 6‐(2,3‐dihydro‐1,4‐benzodioxin‐3‐yl)‐3‐pyridin‐2‐yl‐[1,2,4]triazolo[3,4‐b][1,3,4]thiadiazole], for which the half-inhibitory concentration (IC50) reads like this: under setting [1], 42 ± 2.6 µM; under setting [2], 44.5 µM and 44.4 µM; under setting [3], 39.3 µM.

With `Fc1ccc(-c2nn3c(-c4ccccn4)nnc3s2)cc1` [3469:N17, 6‐(4‐fluorophenyl)‐3‐pyridin‐2‐yl‐[1,2,4]triazolo[3,4‐b][1,3,4]thiadiazole], the half-inhibitory concentration (IC50) runs as follows: (IC50 (curve fit of IC50 plots, Fig. S10), Trial 1, 0.25 mM 6-P-F-Asp, unit in Fig. S10) 113 µM; (IC50 (curve fit of IC50 plots, Fig. S10), Trial 2, 0.25 mM 6-P-F-Asp, unit in Fig. S10) 86.7 µM; (IC50, 0.25 mM 6‐P‐F‐Asp, mean and standard error from two measurements) 100 ± 13 µM.

Consider `CC(C)Cc1cc(-c2nn3c(-c4ccccc4Cl)nnc3s2)n[nH]1` [3470:A09, 3‐(2‐chlorophenyl)‐6‐[5‐(2‐methylpropyl)‐1H‐pyrazol‐3‐yl]‐[1,2,4]triazolo[3,4‐b][1,3,4]thiadiazole], for which the IC50 under setting [1] was 15.4 ± 0.4 µM, the IC50 under setting [2] came to 15.8 µM and the IC50 under setting [3] came to 15 µM.

Usually IC50 stands for the concentration that gives 50% inhibition.
